Source: patent publication US7018642B2 (The Procter & Gamble Company, priority 2001, dated 2006)

Experiments:
Type in all cases: cell-based
[1] = test system: P. aeruginosa strain PAO1; assay: Biofilm prevention screen (96-well microplate, crystal violet); conditions: Pseudomonas aeruginosa, positive = prevention, negative = enhancement of biofilm formation, quadruplicate, read-out: average percentage reduction of biofilm formed relative to DMSO controls
Protocol: (§1) Overnight cultures of 3 mL are made of P. aeruginosa strain PAO1 (grown in R2A medium (Handbook of Microbiological Media; CRC Press, 1997, second edition, R. M. Atlas, ed.), modified to omit Mg^2+ but to include 0.3–0.5% fructose (pH 7.0) and 3 μM ferrous ammonium sulfate), P. fluorescens strain ATCC 13525 (grown in R2A modified to omit Mg^2+ but to include 0.3–0.5% sodium pyruvate (pH 7.0)), S. epidermidis strain ATCC 35984 (grown in a ¼ dilution of TSB (Handbook of Microbiological Media; CRC Press, 1997, second edition, R. M. Atlas, ed.) supplemented with 1% fructose (pH 7.0) and 3 μM ferrous ammonium sulfate). To each type of growth medium, HEPES (pH 7.3) is optionally added to a final concentration of 10 mM.
(§2) To PS, PVC, or PP (preferably PP or PVC) round-bottom, 96-well microplates containing 100 μl per well of the respective growth medium as described above, compounds to be tested (dissolved in DMSO) are added and mixed, to give a final concentration of 250–500 μM. These microplates then also are used to make successive dilutions of the compounds in the same respective growth medium to yield microplates containing final concentrations of, for example, 160 μM and 32 μM of the same set of compounds. Control wells are included in the dilution series that contain only DMSO. From the 3 ml overnight cultures, each of the three dilution plate sets is inoculated with 5 μl per well of a 1:1 dilution in the same liquid growth media of the appropriate culture. The covered plate is then incubated with shaking, at 30° C. (for P. aeruginosa or P. fluorescens) or 37° C. (for S. epidermidis), at 200 rpm, for 16–26 hours, in a humidity controlled environment.
(§3) Cells present in biofilm attached to the microplate surface are stained with CV either after removal of the liquid from each well, followed by rinsing three times (aspiration and addition) with 150 μl per well phosphate buffered saline solution (PBS) and final addition of 100 μl per well of PBS, or by direct addition of stain to bacterial cultures without rinsing. To 100 μl per well of PBS or of bacterial culture, 25 μl/well of 1% CV solution (in ˜10% ethanol) is added. After incubation at room temperature for 45 minutes, the dye solution is removed from the plates. Residual dye is immediately removed by gentle rinsing with a stream of deionized water by filling and inverting the plates 4–5 times, or by using an automated pipettor. Rinsed plates are air-dried at room temperature for 0.5–2 hours. Bound dye is extracted by the addition of 150 μL per well of 95% ethanol, followed by vigorous mixing for 10–15 seconds and incubation for 45 minutes at room temperature without shaking. Subsequently, either undiluted or diluted (in ethanol) samples of extracted CV are transferred to flat bottom, polystyrene microtiter plates and absorbances at 586 nm were measured in a microplate reader. Readings from wells containing compounds are compared to the average of data from control wells that contain only DMSO. Replicate samples are measured, and results are reported as averages of the replicate well data points.
(§4) Data are expressed in terms of the average percentage reduction of biofilm formed in the presence of each compound, relative to the DMSO controls, for quadruplicate samples. Assays are run using the three compound concentrations indicated. Positive numbers indicate prevention of biofilm formation by a compound, and negative numbers indicate enhancement of biofilm formation by a compound (percentage coefficients of variation are ≦10%).

[2] = test system: P. fluorescens strain ATCC 13525; assay: as above; conditions: Pseudomonas fluorescens, positive = prevention, negative = enhancement of biofilm formation, quadruplicate, read-out: average percentage reduction of biofilm formed relative to DMSO controls; for inhibition at 32 µM: ATCC13525, 32 μM; for inhibition at 160 µM: ATCC13525, 160 μM; for inhibition at 390 µM: ATCC13525, 390 μM
Protocol: as §1, §2, §3, §4

[3] = test system: S. epidermidis strain ATCC 35984; assay: as above; conditions: Staphylococcus epidermidis, positive = prevention, negative = enhancement of biofilm formation, quadruplicate, read-out: average percentage reduction of biofilm formed relative to DMSO controls; for inhibition at 32 µM: ATCC35984, 32 μM; for inhibition at 160 µM: ATCC35984, 160 μM; for inhibition at 390 µM: ATCC35984, 390 μM
Protocol: as §1, §2, §3, §4

[4] = test system: P. aeruginosa strain PAO1; assay: Improved biofilm dispersion screen (already-formed biofilms, crystal violet); conditions: Pseudomonas aeruginosa, 30 mM NaOH step, positive = dispersion, negative = enhancement of pre-existing biofilm, quadruplicate, read-out: average percentage reduction of biofilm relative to the two control values (dispersion)
Protocol: (§5) A modification of method disclosed in Reference Example 2, which greatly improves the sensitivity and reproducibility of the dispersion screen is hereby disclosed. […] In the modification described herein, compounds are added in the presence of the fresh liquid growth media, such that the resultant biofilms continue to grow, unless a test compound triggers their dispersion. Overnight cultures are made as above, and 100 μL of the appropriate liquid growth media are dispensed into duplicate 96 well microplates—in this fashion, two identical microplates are set up for each bacterial species to be assayed. Neither compounds nor DMSO are added prior to the inoculation of bacteria, and growth in the duplicate plates for 24 hours is allowed using the conditions specified in Reference Example 1. After growth of biofilm to be tested in the wells, cells present in biofilm attached to one of the duplicate microplates is stained with CV, quantitated as described in Reference Example 1, and the data for the entire plate averaged, resulting in a growth control value, t0. The remaining replicate of each microplate pairs is treated with compounds in DMSO, or DMSO alone for control wells, by first removing the cell suspensions from the wells, then adding fresh 100 μL volumes of the same appropriate liquid growth media, followed by direct addition and mixing of the compound DMSO solutions to give final compound concentrations of 390 μM. Incubation of the compound-containing microplates is then continued for an additional 22–26 hours using the same conditions described in Reference Example 1. Cell suspensions are then removed, 100 μL per well of a 0 mM NaOH (S. epidermidis), 20 mM NaOH (P. fluorescens), or 30 mM NaOH (P. aeruginosa) solution in PBS is added, and incubation at room temperature is allowed for 30 minutes. No addition of NaOH is made to the S. epidermidis suspension since a test assay indicated no amplification by base with S. epidermidis. The microplates are subsequently rinsed three times with 150 μL per well of PBS, followed by final liquid removal, staining with CV and quantitation as described in Reference Example 1. Data for each well that contained compound result in a compound value, R, and data for control wells that contained DMSO only are averaged to generate a second control value, t24. The effect of each compound tested on dispersion of the biofilm compared to the two control values is calculated thus: [formula] […] Data are expressed in terms of the average percentage reduction of biofilm formed in the presence of each compound, relative to the two control values, for quadruplicate samples. Assays are run as described above, using compound concentrations of 390 μM. Positive numbers indicate dispersion (reduction) of pre-existing biofilms by a compound, and negative numbers indicate enhancement (stimulation of growth) of pre-existing biofilms by a compound (percentage coefficients of variation are ≦15%).

[5] = test system: P. fluorescens strain ATCC 13525; assay: as above; conditions: Pseudomonas fluorescens, ATCC13525, 20 mM NaOH step, positive = dispersion, negative = enhancement of pre-existing biofilm, quadruplicate, read-out: average percentage reduction of biofilm relative to the two control values (dispersion)
Protocol: as §5

[6] = test system: S. epidermidis strain ATCC 35984; assay: as above; conditions: Staphylococcus epidermidis, ATCC35984, no NaOH, positive = dispersion, negative = enhancement of pre-existing biofilm, quadruplicate, read-out: average percentage reduction of biofilm relative to the two control values (dispersion)
Protocol: as §5

| Structure (SMILES) | inhibition at 32 µM [1] | inhibition at 160 µM [1] | inhibition at 390 µM [1] | inhibition at 32 µM [2] | inhibition at 160 µM [2] | inhibition at 390 µM [2] | inhibition at 32 µM [3] | inhibition at 160 µM [3] | inhibition at 390 µM [3] | inhibition at 390 µM [4] | inhibition at 390 µM [5] | inhibition at 390 µM [6] |
| --- | --- | --- | --- | --- | --- | --- | --- | --- | --- | --- | --- | --- |
| CCCCNC(=O)[C@H]1CCCN1 [Compound 162] | -9% | -13% | -9% | 7% | 1% | 11% | -4% | -8% | -47% | -23% | 0% | 0% |
| CCCCCCCCCCNC(=O)[C@@H]1CCCN1C(=O)OC(C)(C)C [Compound 12, N-(tert-Butoxycarbonyl)-L-proline n-decyl amide] | 6% | -45% | -32% | -16% | -42% | -37% | -21% | -2% | 31% | -30% | -30% | 0% |
| CCCCCCCCNC(=O)[C@@H]1CCCCN1 [Compound 20] | -16% | -22% | 15% | -16% | -14% | 40% | 1% | 1% | -59% | 46% | 25% | 0% |
| CCCCCCNC(=O)C1CCCN1C(C)=O (racemic) [Compound 7] | -13% | -20% | -13% | -11% | -30% | -32% | -10% | 6% | -11% | -6% | -4% | 0% |
| CCCCCCCCNC(=O)[C@H]1CCCCN1 [Compound 23, (R)-(+)-2-piperidinecarboxylic acid n-octyl amide] | -5% | -31% | -3% | -23% | -13% | 21% | -1% | 15% | -36% | 0% | 26% | 0% |
| CCCCCCCCCCNC(=O)[C@H]1CCCN1 [Compound 166] | 10% | 22% | 96% | 0% | 57% | 98% | 13% | 100% | 101% | -2% | 0% | 70% |
| CCCCCCCCCCNC(=O)C1CCCN1C(C)=O (centres unmarked) [Compound 9] | -6% | -4% | -26% | -6% | -9% | 0% | -21% | -69% | 33% | -68% | -1% | 21% |
| CCCCNC(=O)[C@@H]1CCCN1 [Compound 165] | 2% | -16% | 1% | 10% | 4% | 20% | -6% | -15% | -12% | 0% | 6% | -3% |
| CCCCCCCCCCCCNC(=O)[C@@H]1CCN1C(=O)OC(C)(C)C [Compound 286] | -5% | -22% | -54% | -9% | -60% | -98% | -15% | -29% | 12% | -83% |  | 0% |
